Measured values taken from US20260356814A1, “INDOLINE DERIVATIVES AS SEROTONERGIC AGENTS USEFUL FOR THE TREATMENT OF DISORDERS RELATED THERETO” (MINDSET PHARMA INC., priority 2022, published 2026).

Legend:
human 5-HT2A receptor = human 5-HT2A receptor (Homo sapiens, UniProt P28223); test: Human 5-HT2A: Radioligand binding assay ([3H]-ketanserin); conditions: [3H]-ketanserin displacement, 27° C., 90 min, pH 7.4; read-out: h5-HT2A, IC50
Experimental: Exemplary compounds of Formula I were evaluated functionally using FLIPR assay for their effect on h5-HT2A receptor under agonist mode. The objective of this study was to evaluate the binding properties of exemplary compounds of Formula I on 5-hydroxytryptamine receptor 2A (5-HT2A). • Human 5-HT2A: Radioligand binding assay:
• i. The assay buffer was prepared following the table below.
• Adjust pH to 7.4 followed by […] sterile filtration • ii. 8 doses of reference and test compounds starting from 10 mM stock solution as required was prepared by 5-fold serial dilutions with 100% (v/v) DMSO. • iii. UniFilter-96 GF/B plate was pretreated: • a. 50 μl/well of 0.5% (v/v) PEI was added to UniFilter-96 […] plates. The plates were sealed and incubated at 4° C. for 3 hrs. • b. After incubation, the plates were washed 3 times with ice-cold wash buffer (50 mM Tris, pH7.4). • iv. The assay plate was prepared: • a. Cell membrane was diluted with assay buffer and 330 μl/well was added to 96 round deep well plates to reach a concentration of 20 μg/well. • b. 8 concentrations of reference or test compounds were prepared and 110 μl/well was added to 96 round deep well plates. • c. [3H]-ketanserin was diluted with assay buffer to 5 nM (5X final concentration) and 110 μl/well was added to 96 round deep well plates. • v. The plate was centrifuged at 1000 rpm for 30 secs and then agitated at 600 rpm, R.T. for 5 min. • vi. The plates were sealed and the plate incubated at 27° C. for 90 min. • vii. The incubation was stopped by vacuum filtration onto GF/B filter plates followed by 4 times washing with ice-cold wash buffer (50 mM Tris, pH7.4). • viii. The plates were dried at 37° C. for 45 min. • ix. The filter plates were sealed and 40 μl/well of scintillation cocktail was added. • x. The plate was read by using a Microbeta2 microplate counter.
• 1. For reference and test compounds, the results were expressed as % Inhibition, using the normalization equation: N=100−100×(U−C2)/(C1-C2), where U is the unknown value, C1 is the average of high controls, and C2 is the average of low controls. • 2. The IC50 was determined by fitting percentage of inhibition as a function of compound concentrations with Hill equation using XLfit.

human 5-HT1A receptor = biological target: T1, human 5-HT1A receptor (Homo sapiens, UniProt P08908); test: Human 5-HT1A: Functional FLIPR assay (agonist mode); assay type: cell-based; conditions: for RFU@10 μM: @10 μM (head), footnote: curve fitting with activation (%) @ 10 mM with RFU, RFU=Fmax−Fmin; for EC50: FLIPR calcium, agonist mode, HTR1A&Gα15-CHO cells, ND: not detected, read-out: h5-HT1A, EC50
T1 construct: expressed in transfected cells; host or cells: CHO (HTR1A&Ga15-CHO)
T1 sequence (P08908 1-422): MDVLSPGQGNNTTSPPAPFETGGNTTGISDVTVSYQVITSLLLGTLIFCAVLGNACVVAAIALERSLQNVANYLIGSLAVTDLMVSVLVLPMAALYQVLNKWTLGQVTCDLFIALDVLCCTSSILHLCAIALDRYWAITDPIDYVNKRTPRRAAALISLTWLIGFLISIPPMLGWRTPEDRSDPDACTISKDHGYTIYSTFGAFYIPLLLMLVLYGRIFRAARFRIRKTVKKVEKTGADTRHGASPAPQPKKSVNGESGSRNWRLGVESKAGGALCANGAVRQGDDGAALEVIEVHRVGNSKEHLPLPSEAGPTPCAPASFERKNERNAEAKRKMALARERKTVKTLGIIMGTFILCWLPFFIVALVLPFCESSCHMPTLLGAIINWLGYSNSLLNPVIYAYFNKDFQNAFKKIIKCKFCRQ
Experimental: The potential excitatory effects of compounds targeting on 5-hydroxytryptamine receptor 1A (5-HT1A) under agonist mode was assessed.
HTR1A&Ga15-CHO cells were cultured in DMEM/F12 medium containing 10% dialyzed FBS, 1x penicillin-streptomycin and 600 μg/mL Hygromycin B. The cells were passaged about three times a week, maintained between ~30% to ~90% confluence.
• 1. The cell culture medium (DMEM/F12 medium containing 10% dialyzed FBS, 1x penicillin-streptomycin and 600 μg/mL Hygromycin B), TrypLE™ Express and DPBS was warmed to R.T. in advance. • 2. The cell culture medium was removed from flask. Washed cells with DPBS. • 3. 1 mL TrypLE™ Express was added to the flask, mixed well by gentle shaking and cells were incubated at 37° C. for a few minutes. • 4. The cells were checked for morphological change under microscope, the digestion was stopped by adding 2 mL cell culture medium to the flask when most of cells turned to round. • 5. The cell suspension was transferred into a 15 mL centrifuge tube, and then centrifuged at 1,200 rpm for 5 minutes. • 6. The supernatant was removed. The cell pellet were resuspended with 2 mL cell culture medium. • 7. The cell density were counted using cell counter. Only cells with >85% viability were used for the assay. • 8. Cells were diluted to 4×10^5/mL with cell culture medium. • 9. 30 μL/well cell suspensions were added into a 384-well cell plate (The cell density was 12,000 cells/well). • 10. The cell plate was incubated overnight at 37° C., 5% (v/v) CO2.
• 1. On the day of experiments, culture medium was removed from the cell plate. • 2. 10 μL of assay buffer (20 mM HEPES, in 1×HBSS, pH 7.4) was added to each well of the cell plate. • 3. 2× dye solution was prepared following the manufacture's instruction of the FLIPR® Calcium 6 assay kit: • i. The dye was diluted with assay buffer. • ii. probenecid was added to the final concentration of 5 mM. • iii. Vortexed vigorously for 1-2 minutes, adjust pH to 7.4. • 4. 10 μL of 2×dye solution was added to each well of the cell plate. • 5. The cell plate was placed on plate shaker, followed by shaking at 600 rpm for 2 minutes. • 6. The plate was incubated at 37° C. for 2 hours followed by an additional 15-minute incubation at 25° C. 3.4 Prepare 3×compounds. • 1. Serotonin was prepared to the concentration of 10 mM with DMSO, 3-folds serial dilutions were performed with DMSO. • 2. Prepare the test compound to the concentration of 10 mM with DMSO, preform 3-folds serial dilutions with DMSO. • 3. The compounds were added to a 384-well compound source plate. • 4. 90 nL/well of serial diluted compounds were transferred from source plate to a 384-well compound plate by using an Echo. • 5. 30 μL/well of assay buffer was added to the compound plate. • 6. The plate was mixed on-plate shaker for 2 minutes. 3.5 FLIPR assay • 1. After the cells incubate with dye solution, the cell plate, compound plate containing 3×compounds and FLIPR tips were placed into FLIPR. • 2. 10 μL of 3×compounds were transferred from the compound plate to the cell plate by FLIPR. • 3. The plate was read for 160 sec with 1 sec interval to obtain the data of agonist mode.
• 1. The normalized fluorescence reading (RFU) was calculated as shown below, wherein Fmax and Fmin stand for maximum and minimum of calcium signal during defined time window:
RFU=Fmax−Fmin • 2. EC50 was calculated by fitting RFU against log of compound concentrations with Hill equation using XLfit.

Chain of human 5-HT2A receptor (P28223 whole entry): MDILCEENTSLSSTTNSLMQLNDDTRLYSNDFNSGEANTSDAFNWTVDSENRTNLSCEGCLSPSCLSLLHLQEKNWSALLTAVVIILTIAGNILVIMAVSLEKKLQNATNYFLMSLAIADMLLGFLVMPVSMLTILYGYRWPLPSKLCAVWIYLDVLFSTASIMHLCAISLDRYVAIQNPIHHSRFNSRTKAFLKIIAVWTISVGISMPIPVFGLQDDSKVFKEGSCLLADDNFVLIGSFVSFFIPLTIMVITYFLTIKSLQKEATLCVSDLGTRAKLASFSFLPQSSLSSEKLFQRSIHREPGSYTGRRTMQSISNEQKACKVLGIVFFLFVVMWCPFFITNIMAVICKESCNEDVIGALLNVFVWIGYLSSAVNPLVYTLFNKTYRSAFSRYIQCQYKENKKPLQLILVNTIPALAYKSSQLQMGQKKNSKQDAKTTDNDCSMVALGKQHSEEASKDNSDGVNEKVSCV

SMILES	IC50 (human 5-HT2A receptor)	RFU@10 μM (human 5-HT1A receptor)	EC50 (human 5-HT1A receptor)
[2H]C([2H])([2H])N1CCC[C@@H]1C([2H])([2H])N1CCc2ccccc21 [(R)-I-1, (R)-1-((1-(Methyl-d3)pyrrolidin-2-yl)methyl-d2) indoline]	4.53 µM	84 RFU	
[2H]C([2H])([2H])Oc1ccc2c(c1)N(C([2H])([2H])[C@H]1CCCN1C([2H])([2H])[2H])CC2 [(R)-I-28, (R)-6-(Methoxy-d3)-1-((1-(methyl-d3)pyrrolidin-2-yl)methyl-d2) indoline]	8.48 µM	1981 RFU	2340 nM
COc1cc2c(cc1OC)N(C[C@H]1CCCN1C)CC2 [(R)-I-34, (R)-5,6-dimethoxy-1-((1-methylpyrrolidin-2-yl)methyl) indoline]	> 30 µM	155 RFU	
COc1cccc2c1N(C[C@H]1CCCN1C)CC2 [(R)-I-46, (R)-7-Methoxy-1-((1-methylpyrrolidin-2-yl)methyl) indoline]	2.46 µM	373 RFU	
COc1cccc2c1CCN2C[C@H]1CCCN1C [(R)-I-47, (R)-4-Methoxy-1-((1-methylpyrrolidin-2-yl)methyl) indoline]	> 30 µM	70 RFU	
[2H]C([2H])([2H])N1CCC[C@@H]1C([2H])([2H])N1CCc2ccc(OC)cc21 [(R)-I-57, (R)-6-Methoxy-1-((1-(methyl-d3)pyrrolidin-2-yl)methyl-d2) indoline]	7.96 µM	2081 RFU	1260 nM
COc1ccc2c(c1)N(C[C@H]1CCCN1C)CC2 [(R)-I-58, (R)-6-Methoxy-1-((1-methylpyrrolidin-2-yl)methyl) indoline]	6.53 µM	2444 RFU	2040 nM
COc1ccc2c(c1)N(C[C@H]1CCCN1)CC2 [(R)-I-59, (R)-6-Methoxy-1-(pyrrolidin-2-ylmethyl) indoline]	15.3 µM	521 RFU	
[2H]C([2H])([2H])N(CCN1CCc2ccc(OC)cc21)C([2H])([2H])[2H] [Compound I-70, 2-(6-Methoxyindolin-1-yl)-N, N-bis(methyl-d3) ethan-1-amine]	25.8 µM	161 RFU	
[2H]C([2H])([2H])N(CCN1CCc2ccccc21)C([2H])([2H])[2H] [Compound I-71, 2-(Indolin-1-yl)-N,N-bis(methyl-d3) ethan-1-amine]	15 µM	145 RFU	
